Reference: patent US8592421B2, “Cyclic bioisosters of purine system derivatives and a pharmaceutical composition based thereon” (priority 2003, dated 2013)

Tests used:
[1] = tested on: adenosine-sensitive receptors of erythrocytes; experiment: Interaction with adenosine-sensitive receptors of erythrocytes (chemiluminescence of bound compound, adenosine competition); format: binding, mice of line BALB/c; settings: incubation at 37° C. vs 4° C., 10^−7 to 10^−5 M
Method: The interaction of compounds 2, 15, 21, 37 according to the invention with adenosine-sensitive receptors of erythrocytes of female mice of line BALB/c of an age of 8-12 months was investigated.
The dependence of the chemiluminescence intensity of the compounds according to the invention in an alkaline solution of 0.1N NaOH was determined in the presence of hydrogen peroxide being an initiator of chemiluminescence. The chemiluminescence was studied using the <<LKB>> chemiluminometer.
The erythrocytes of peripheral blood of the mice at first were washed three times by a normal physiological solution with centrifuging and then diluted in the Henks solution without glucose by 10 volumes of distilled water immediately used in the experiment.
At the first stage of the experiments the washed erythrocytes were incubated at a temperature of 37° C. or at 4° C. with solutions of the compounds according to the invention at a concentration of 10^−7 to 10^−5 M for 5-30 minutes, then washed by a normal physiological solution with repeated centrifuging in the cold. The obtained suspension of erythrocytes with the bound compounds according to the invention was placed in 0.1N solution of NaOH with addition of hydrogen peroxide at a final concentration of 10^−7 M. The chemiluminescence intensity was measured. A suspension of erythrocytes without compounds according to the invention was used as a control medium.
At the second stage of the experiments the washed erythrocytes were incubated at a temperature of 37° C. with solutions of the compounds according to the invention at a concentration of 10^−11 to 10^−8 M during 5-30 minutes, then washed twice with a normal physiological solution by centrifuging in the cold, the obtained suspension was mixed with an adenosine solution at a concentration of 10^−6 to 10^−4 and incubated for 15 minutes, then washed twice with a normal physiological solution with centrifuging in the cold. The obtained suspension of erythrocytes with the compounds according to the invention was placed in 0.1N solution of NaOH with addition of hydrogen peroxide in the final concentration of 10^−7 M. The chemiluminescence intensity was measured.

[2] = tested on: plasma hemostasis; experiment: Partial activated thromboplastin time (PATT) after intravenous administration; format: in vivo, rabbit; settings: for effect on the PATT: doses 15.0, 30.0, 60.0 mg/kg
Method: The static parameters of the blood and plasma coagulation (partial activated thromboplastin time, thrombin time, maximum coagulation activity (test for auto coagulation) were determined using the Behnk Electronic coagulometer (Germany). The operating principle of this instrument is based on the fact that the formed blood clot breaks the contacts of the pulse counter in the flask-pin circuit, said pin permanently oscillating in a vertical plane. The moment of formation of the clot is registered by stopping the stop watch hand.
The measurements were effected at a constant temperature of 37° C. maintained by a temperature control unit.

[3] = Chronic toxicity of suppositories: indexes of peripheral blood; format: in vivo, rats; settings: rat, in vivo
Method: The experiments were conducted on inbred rats.
Two doses of preparations used in the experiments: 50 mg/kg and 500 mg/kg. Before the administration, the suppositories were softened by heating in a glass water bath at a temperature of 38-39° C., the soft mass was collected in tuberculin syringe in a volume of 1 ml, a needle with oliva was attached to the syringe, and the preparatory mass was introduced into the rectum of the animal for a depth of 1.5-2.0 cm. The animals of the control group were administered with sterile medical liquid paraffin in a volume corresponding to the volume of the investigated suppository. A complete course of administration of drugs to the animals was two months. A complex of laboratory diagnostic investigations was carried out one month after the beginning of the administration of the preparation to the animal—in a middle of the course (8 animals), two months after ending the course (8 animals) and three months after ending the recovery period of one month (8 animals). The mass of the body of the rats in the first month of administration of the preparation was determined weekly, and then once in two weeks. On the basis of the dynamics of an index of the mass of the animal body, the volume of preparation being administered was corrected taking into account the test dose.

[4] = 15.0 mg/kg intravenously, after 15 minutes, control 37.0 ± 0.2
[5] = 15.0 mg/kg intravenously, after 30 minutes, control 37.0 ± 0.2
[6] = 15.0 mg/kg intravenously, after 60 minutes, control 37.0 ± 0.2
[7] = 15.0 mg/kg intravenously, after 120 minutes, control 37.0 ± 0.2
[8] = 30.0 mg/kg intravenously, after 15 minutes, control 33.3 ± 0.8
[9] = 30.0 mg/kg intravenously, after 30 minutes, control 33.3 ± 0.8
[10] = 30.0 mg/kg intravenously, after 60 minutes, control 33.3 ± 0.8
[11] = 30.0 mg/kg intravenously, after 120 minutes, control 33.3 ± 0.8
[12] = 60.0 mg/kg intravenously, after 15 minutes, control 32.5 ± 0.3
[13] = 60.0 mg/kg intravenously, after 30 minutes, control 32.5 ± 0.3
[14] = 60.0 mg/kg intravenously, after 60 minutes, control 32.5 ± 0.3
[15] = 60.0 mg/kg intravenously, after 120 minutes, control 32.5 ± 0.3

Structure (SMILES)	dependence of the bond with erythrocytes on temperature [1]	PATT, T [2, 4] [s]	PATT, T [2, 5] [s]	PATT, T [2, 6] [s]	PATT, T [2, 7] [s]	PATT, T [2, 8] [s]	PATT, T [2, 9] [s]	PATT, T [2, 10] [s]	PATT, T [2, 11] [s]	PATT, T [2, 12] [s]	PATT, T [2, 13] [s]	PATT, T [2, 14] [s]	PATT, T [2, 15] [s]	effect on the PATT [2]	other results
Nc1ccnc2c(=O)n([C@@H]3O[C@H](CO)[C@@H](O)[C@H]3O)[nH]c(=O)c12 [Compound 2, 4-amino-7-(β-D-ribofuranosile)pyrido[2,3-d]-6H-pyridazine-5,8-dione]	does not depend on the temperature	37.0 ± 0.1	37.0 ± 0.2	36.9 ± 0.1	37.0 ± 0.3	32.7 ± 0.5	32.0 ± 0.1	32.2 ± 0.1	32.1 ± 0.2	32.3 ± 0.2	32.4 ± 0.1	32.3 ± 0.1	32.4 ± 0.1	do not affect the PATT	Average volume of erythrocytes ([3]; 50 mg/kg): 83.4 ± 1.4 Mkm^3; Basophiles ([3]; 50 mg/kg): 0%; Juveniles ([3]; 50 mg/kg): 0%; Reticulocytes ([3]; 50 mg/kg): 2.8 ± 0.2/2.8 ± 0.2%; Average volume of erythrocytes ([3]; 500 mg/kg): 85.2 ± 1.2 Mkm^3; Basophiles ([3]; 500 mg/kg): 0%; Juveniles ([3]; 500 mg/kg): 0%
Nc1cnc2c(=O)n([C@@H]3O[C@H](CO)[C@@H](O)[C@H]3O)[nH]c(=O)c2n1.[Na] [Compound 21, sodium salt of 3-amino-7-(β-D-ribofuranosile)pyrazine[2,3-d]-6H-pyridazine-5,8-dione]	does not depend on the temperature	37.1 ± 0.1	37.2 ± 0.1	36.9 ± 0.1	37.0 ± 0.2	32.8 ± 0.4	32.0 ± 0.1	32.2 ± 0.1	32.1 ± 0.1	32.0 ± 0.4	32.1 ± 0.2	32.0 ± 0.1	32.3 ± 0.2	do not affect the PATT	–
